Measured values reported in publication PMC3608651, “A Broad Profile of Co-Dominant Epitopes Shapes the Peripheral Mycobacterium tuberculosis Specific CD8+ T-Cell Immune Response in South African Patients with Active Tuberculosis” (PLoS ONE, 2013).
Where two headings read alike, the source gives them in different places.

Tests used:
Type in all cases: binding
[1] = target: HLA-A*02:01 (Homo sapiens, UniProt P04439, D140Y/D185E/D98H/E176V/E277Q/G131W/G231S/I119V/I121R/I166T/I218V/L300P/L318F/N151K/N90K/P208A/P217A/Q86G/Q94H/R138H/R169H/T345S)
[2] = target: HLA-A*24:02 (Homo sapiens, UniProt P04439, D101N/D140Y/D185E/E176V/E190D/F33S/G103R/G107R/I119L/I121M/I306V/K335N/L105A/L180Q/L300P/N151K/N90K/Q86E/Q94H/R106L/R138H/R89G/T104I/T345S/V100E/W191G/Y123F); conditions: duplicated experiments, positive binder >40%
[3] = target: HLA-A*30:01 (Homo sapiens, UniProt P04439, D140H/D185E/E176W/F33S/G80R/H175R/K168Q/R138E/R41S); conditions: duplicated experiments, positive binder >40%
[4] = target: HLA-A*30:02 (Homo sapiens, UniProt P04439, D101N/D140H/D185E/E176R/F33S/G80R/H175R/K168Q/Q94H/R138E/R41S/V100E); conditions: duplicated experiments, positive binder >40%
[5] = target: HLA-A*68:01 (Homo sapiens, UniProt P04439, A269V/D185E/E176V/E277Q/E87N/F33Y/G231S/I121M/I166T/I218V/L180W/L300P/L318F/N151K/P208A/P217A/Q86R/R169H/T345S); conditions: duplicated experiments, positive binder >40%
[6] = target: HLA-B*07:02 (Homo sapiens, UniProt P01889); conditions: percent relative the binding of positive control peptide […]; duplicated experiments; positive binder >40%
[7] = target: HLA-B*58:01 (Homo sapiens, UniProt P01889, A329T/C349S/D201E/D98Y/E176V/E187L/E204Q/E69T/G107R/I218V/I90N/K202T/L105A/L119I/N104I/N87E/Q89R/Q94S/R106L/R155S/R180L/R86G/S101N/S121R/S35A/S48A/T118I/V127L/V306I/V36M/Y140S/Y91M); conditions: duplicated experiments, positive binder >40%
[8] = target: HLA-C*07:01 (Homo sapiens, UniProt P10321, K90N/S123Y); conditions: duplicated experiments, positive binder >40%
[9] = percent relative the binding of positive control peptide […], plate-bound monomer 0.5 µg/ml, duplicated experiments, positive binder >40%
[10] = percent relative the binding of positive control peptide […]

Row | Substance | Bind A*02:01 [1, 9] [%] | Bind A*24:02 [2, 10] [%] | Bind A*30:01 [3, 10] [%] | Bind A*30:02 [4, 10] [%] | Bind A*68:01 [5, 10] [%] | Bind B*07:02 [6] [%] | Bind B*58:01 [7, 10] [%] | Bind C*07:01 [8, 10] [%] | Bind A*02:01 [1] | Bind A*02:01 ([1]; percent relative the binding of positive control peptide FLPSDFFPSV, plate-bound monomer 0.5 µg/ml, duplicated experiments, positive binder >40%) [%] | Bind A*24:02 ([2]; percent relative the binding of positive control peptide RYLKDQQLL) [%] | Bind A*30:01 ([3]; percent relative the binding of positive control peptide KTKDIVNGL) [%] | Bind A*30:02 ([4]; percent relative the binding of positive control peptide KIQNFRVYY) [%] | Bind A*68:01 ([5]; percent relative the binding of positive control peptide KTGGPIYKR) [%] | Bind B*58:01 ([7]; percent relative the binding of positive control peptide IAMESIVIW) [%] | Bind C*07:01 ([8]; percent relative the binding of positive control peptide KYFDEHYEY) [%]
1 | FLENFVRSS | 77 | 5 | 0 | 0 | 7 | 0 | 0 | 5 |  |  |  |  |  |  |  | 
2 | QLNAMKGDL | 71 | 60 | 10 | 0 | 0 | 49 | 0 | 17 |  |  |  |  |  |  |  | 
3 | NAAGGHNAV | 39 | 0 | 27 | 2 | 28 | 16 | 43 | 5 |  |  |  |  |  |  |  | 
4 | VRSSNLKFQ | 5 | 23 | 0 | 0 | 14 | 10 | 7 | 61 |  |  |  |  |  |  |  | 
5 | IPAEFLENF | 17 | 48 | 0 | 0 | 0 | 47 | 0 | 2 |  |  |  |  |  |  |  | 
6 | AGSSAMILA | 56 | 0 | 0 | 0 | 2 | 10 | 12 | 14 |  |  |  |  |  |  |  | 
7 | VQFQSGGNN | 0 | 0 | 0 | 51 | 0 | 0 | 0 | 0 |  |  |  |  |  |  |  | 
8 | DINTPAFEW | 0 | 56 | 7 | 0 | 3 | 9 | 58 | 10 |  |  |  |  |  |  |  | 
9 | SLIGLAMGD |  | 0 | 0 | 47 | 0 | 3 | 0 | 0 | 57 |  |  |  |  |  |  | 
10 | SQGMGPSLI | 50 | 55 | 11 | 0 | 0 | 2 | 11 | 22 |  |  |  |  |  |  |  | 
11 | YLLDGLRAQ | 111 | 0 | 0 | 10 | 15 | 0 | 0 | 0 |  |  |  |  |  |  |  | 
12 | WVYCGNGTP | 11 | 0 | 0 | 0 | 55 | 2 | 4 | 16 |  |  |  |  |  |  |  | 
13 | LSANRAVKP | 17 | 27 | 49 | 15 | 0 | 11 | 0 | 24 |  |  |  |  |  |  |  | 
14 | GTPNELGGA | 49 | 0 | 0 | 0 | 0 | 0 | 0 | 0 |  |  |  |  |  |  |  | 
15 | ATELNNALQ [Rv3875_62–70] |  |  |  |  |  | 12 |  |  |  | 8 | 13 | 16 | 45 | 5 | 4 | 8
16 | MILAAYHPQ | 56 | 0 | 0 | 82 | 0 | 0 | 11 | 4 |  |  |  |  |  |  |  | 
17 | ACGKAGCQT | 44 | 25 | 19 | 0 | 13 | 9 | 0 | 0 |  |  |  |  |  |  |  | 
18 | NT RLW V Y CG | 0 | 0 | 27 | 49 | 0 | 0 | 0 | 0 |  |  |  |  |  |  |  | 
19 | THSWEYWGA | 21 | 0 | 0 | 67 | 57 | 2 | 0 | 6 |  |  |  |  |  |  |  | 
20 | RLWVYCGNG | 45 | 0 | 0 | 65 | 12 | 2 | 8 | 9 |  |  |  |  |  |  |  | 
21 | ALLDPSQGM | 60 | 0 | 5 | 86 | 0 | 17 | 1 | 22 |  |  |  |  |  |  |  | 
22 | FYSDW YSPA | 61 | 10 | 13 | 0 | 0 | 0 | 0 | 0 |  |  |  |  |  |  |  | 
